Reference: US20120283175A1, “ANTIBACTERIAL COMPOSITIONS” (Achaogen, Inc., priority 2009, published 2012)
In brackets after ≈: the same amount, converted by molar mass. Entries after “also recorded” stand apart in the source; their conditions may differ. Read-outs that look alike come from different tables or passages of the source.

Legend:
Pseudomonas aeruginosa = test: Checkerboard synergy assay with LpxCi-4; assay type: cell-based; settings: combination with LpxCi-4 (3936), Pseudomonas aeruginosa (ATCC27853 in text)
Excerpt: (§1) One classic method for assessing synergy, referred to as the checkerboard assay, is used to predict the efficacy of antibacterial agents, and is described by Scribner et. al., (Antimicrobial Agents and Chemotherapy 21(6):939-943 (1982)) and in Goodman & Gilman (The Pharmacological Basis of Therapeutics, Sixth Edition, pp. 1097-1098 (1980)). The checkerboard assay involves serial two-fold dilutions of the antibiotics individually and in combination in broth, which is then inoculated with the microorganism to be tested. After incubation, the minimum inhibitory concentration (MIC) of each drug used individually and in combination is determined (N.B., the MIC is the lowest concentration of the drug that inhibits growth in the medium). Synergism is indicated by a decrease in the MIC of each drug when used in combination. Antagonism is indicated by an increase in the MIC of either or both drugs when used in combination. Alternate methods of assessing synergy are reviewed in Greco, et al., Pharmacological Reviews 47(2):[…] (1995), incorporated herein by reference in its entirety.
(§2) Partial or full inhibition of LpxC should compromise the outer membrane and thus allow these synergizing agents to enter the cells and exert an antibacterial effect at concentrations where cells untreated with an LpxC inhibitor are unaffected. As a first step, checkerboard synergy assays for a variety of antibacterial agents were perform with several LpxC inhibitors, on several species of gram negative bacteria.
(§3) Bacterial isolates were cultivated from −70° C. frozen stocks of the indicated strains by overnight passages at 35° C. in ambient air on Mueller-Hinton agar (Beckton Dickinson, Franklin Lakes, N.J.). Minimum Inhibitory Concentrations (MICs) were determined by the broth microdilution method in accordance with the Clinical and Laboratory Standards Institute (CLSI) guidelines. In brief, organism suspensions were adjusted to a 0.5 McFarland standard to yield a final inoculum between 3×10^5 and 7×10^5 colony-forming units (CFU)/mL. Drug dilutions and inocula were made in sterile, cation adjusted Mueller-Hinton Broth (Beckton Dickinson). An inoculum volume of 100 μL was added to wells containing 100 μL of broth with 2-fold serial dilutions of drug. All inoculated microdilution trays were incubated in ambient air at 35° C. for 18-24 hours. Following incubation, the lowest concentration of the drug that prevented visible growth (OD600 nm <0.05) was recorded as the MIC.
(§4) Standard checkerboard assays were performed with a combination of the indicated agents and LpxCi-4. Table 2 provides the FICI calculated according to standard techniques.

Yersinia enterocolitica = test: Checkerboard synergy assay with LpxCi-4; assay type: cell-based; settings: combination with LpxCi-4
Excerpt: as §1, §2, §3, §4

Klebsiella pneumoniae = test: Checkerboard synergy assay with LpxCi-4; assay type: cell-based; settings: combination with LpxCi-4
Excerpt: as §1, §2, §3, §4

[1] = test system: P. aeruginosa (ATCC27853); settings: for ΔLogCFU vs 24 hr / Log CFU Mean: 24 hr; for Log CFU Mean: n=5
Excerpt: (§5) The model was run essentially as described by Craig and others (see Gudmundsson et al., “Murine Thigh Infection Model,” Handbook of Animal Models of Infection, M. A. Sande and O. Zak, Eds.; London: Academic Press, 1999, pp 137-144). Briefly, mice were rendered neutropenic prior to infection with 2 doses of cyclophosphamide, and then infected intramuscularly in the thigh with inocula of 10^3-10^5 CFU of either K. pneumo. (ATCC43816) or P. aeruginosa (ATCC27853). Antibiotics or vehicle alone as a negative control were administered twice at 2 hrs and 14 hrs post-infection. The animals were kept neutropenic for the duration of the experiment in order to minimize the effect of white blood cells on the infection such that the microbiological readout measures the in vivo interaction of drugs and bacteria. At 24 hrs post-infection, thighs were harvested, homogenized, and plated to measure the number of CFUs surviving per thigh. Thighs from a subset of animals were also harvested 2 hrs post-infection to record the CFUs present just prior to the first antibiotic treatment (pre-treatment).
This table focuses on the sensitive part of the LpxCi-4 dose response curve (30 mg/kg) by examining the mean log CFU at 0 or 24 hours, as well as the log change in CFU at 24 hours relative to zero hours (“ΔLogCFU vs […]”). Data is given for animals treated with vehicle, LpxCi-4 at 30 mg/kg, a second agent alone at the indicated doses or the combination of LpxCi-4 at 30 mg/kg plus the second agent at the indicated dose. The standard errors for each measurement are also given (n=5 animals/group). By comparing the observed drop in CFU of the combination with the sum of the drop in CFU associated with each of the two agents given separately, one can determine whether the combination is, in fact, synergistic in vivo.

envA+ (D21) E. coli = test: MIC by broth microdilution, isogenic envA+ strain; assay type: cell-based
Protocol: as §3

E. coli ATCC25922 = test: MIC by broth microdilution, wild type strain ATCC25922; assay type: cell-based
Protocol: as §3

envA1 (D22) E. coli = test: MIC by broth microdilution, isogenic envA1 mutant strain; assay type: cell-based; settings: for MIC: Strain envA1 (D21); for Fold decrease in MIC (envA+/envA1): envA+ vs envA1 E. coli
Protocol: as §3

K. pneumo. (ATCC43816) = test: Neutropenic thigh in vivo efficacy model (mice); design: species or system Klebsiella pneumoniae; settings: K. pneumo. (ATCC43816); summary
Excerpt: as §5

gram negative bacteria = test: Checkerboard synergy score at fractions of the antibacterial agent's MIC, with LpxCi-1, -2, -3; assay type: cell-based; design: scale not given here
Protocol: as §2, §3

[2] = first block of Table 5, mg/kg/day b.i.d.: 3936 30, Rif. 30, Azith. 50
[3] = second block of Table 5, mg/kg/day b.i.d.: 3936 30, Eryth. 60, Dapto. 3, Oxacil. 100

CO/N=C(\C(=O)N[C@@H]1C(=O)N2C(C(=O)O)=C(COC(C)=O)CS[C@H]12)c1csc(N)n1 [Cefotaxime, cefotaxime] was tested, and the FICI index (Pseudomonas aeruginosa) was “≦1.0”, the FICI index (Yersinia enterocolitica) was “≦0.5” and the FICI index (Klebsiella pneumoniae) was 0.5.
CO[C@H]1/C=C/O[C@@]2(C)Oc3c(C)c(O)c4c(O)c(c(/C=N/N5CCN(C)CC5)c(O)c4c3C2=O)NC(=O)/C(C)=C\C=C\[C@H](C)[C@H](O)[C@@H](C)[C@@H](O)[C@@H](C)[C@H](OC(C)=O)[C@@H]1C [Rifampin, rifampin] was tested, and the “ΔLogCFU vs 24 hr” value [1, 2] was −0.28, the “Log CFU Mean” value [1, 2] was 7.46 and the “in vivo synergy with LpxC inhibitors” value ([1]; P. aeruginosa (ATCC27853), summary) was “surprising in vivo synergy”. The “drop in CFU relative to vehicle” value ([1]; each agent at 30 mg/kg) was 0.28 log, the FICI index (Pseudomonas aeruginosa) was “≦1.0” and the FICI index (Pseudomonas aeruginosa; listed as rifampin) was under 1.0. The FICI index (Yersinia enterocolitica) was 0.19, the FICI index (Klebsiella pneumoniae) was “≦0.08” and the MIC (envA+ (D21) E. coli) was 16 µg/mL (≈ 19.4 µM). For the same compound, the MIC (E. coli ATCC25922) was 16 µg/mL (≈ 19.4 µM), the MIC (envA1 (D22) E. coli) was 0.25 µg/mL (≈ 0.304 µM) and the “in vivo synergy with multiple LpxC inhibitors” value (K. pneumo. (ATCC43816)) was “surprising in vivo synergy”.
C[C@H]1COc2c(N3CCN(C)CC3)c(F)cc3c(=O)c(C(=O)O)cn1c23 [Levofloxacin] was tested, and the FICI index (Pseudomonas aeruginosa) was “no effect”, the FICI index (Yersinia enterocolitica) was 0.63 and the FICI index (Klebsiella pneumoniae) was 0.5.
gentamicin was tested, and the FICI index (Pseudomonas aeruginosa) was 0.38, the FICI index (Yersinia enterocolitica) was 0.5 and the FICI index (Klebsiella pneumoniae) was 0.75.
CCC[C@@H]1C[C@@H](C(=O)N[C@@H]([C@H]2O[C@H](SC)[C@H](O)[C@@H](O)[C@H]2O)[C@H](C)Cl)N(C)C1 [Clindamycin, clindamycin] was tested, and the FICI index (Pseudomonas aeruginosa) was “no effect”, the FICI index (Yersinia enterocolitica) was 0.13 and the FICI index (Klebsiella pneumoniae) was “≦0.5”.
Nc1nc(/C(=N/O)C(=O)N[C@@H]2C(=O)N3C(C(=O)O)=C(/C=C4\CCN([C@@H]5CCNC5)C4=O)CS[C@H]23)ns1 [Ceftobioprole] gave an FICI index (Pseudomonas aeruginosa) of 0.5, an FICI index (Yersinia enterocolitica) of 0.5 and an FICI index (Klebsiella pneumoniae) of 0.63.
With CCCCCCCCCC(=O)N[C@@H](Cc1c[nH]c2ccccc12)C(=O)N[C@H](CC(N)=O)C(=O)N[C@@H](CC(=O)O)C(=O)N[C@@H]1C(=O)NCC(=O)N[C@@H](CCCN)C(=O)N[C@@H](CC(=O)O)C(=O)N[C@H](C)C(=O)N[C@@H](CC(=O)O)C(=O)NCC(=O)N[C@H](CO)C(=O)N[C@@H]([C@H](C)CC(=O)O)C(=O)N[C@@H](CC(=O)c2ccccc2N)C(=O)O[C@@H]1C [Daptomycin, daptomycin] the “ΔLogCFU vs 24 hr” value [1, 3] was −1.04, the “Log CFU Mean” value [1, 3] was 6.6 and the FICI index (Pseudomonas aeruginosa) was “no measurable synergy; also recorded: no effect”. For the same compound, the FICI index (Klebsiella pneumoniae) was “no measurable synergy; also recorded: no effect”, the MIC (envA+ (D21) E. coli) was 256 µg/mL (≈ 158 µM) and the MIC (E. coli ATCC25922) was over 256 µg/mL. For the same compound, the MIC (envA1 (D22) E. coli) was 32 µg/mL (≈ 19.7 µM), the “Fold decrease in MIC (envA+/envA1)” value (envA1 (D22) E. coli) was 8 and the “MIC shift due to modification of envA” value (envA1 (D22) E. coli; isogenic envA1 (D22) vs envA+ (D21) E. coli) was 8 ×.
In the case of teicoplanin, the FICI index (Pseudomonas aeruginosa) is reported as “no effect”, the FICI index (Yersinia enterocolitica) is reported as “≦0.25” and the FICI index (Klebsiella pneumoniae) is reported as “≦0.37”. The MIC (envA+ (D21) E. coli) was over 256 µg/mL, the MIC (E. coli ATCC25922) was over 256 µg/mL and the MIC (envA1 (D22) E. coli) was 32 µg/mL. The “Fold decrease in MIC (envA+/envA1)” value (envA1 (D22) E. coli) was “≧8”.
With CC(=O)NC[C@H]1CN(c2ccc(N3CCOCC3)c(F)c2)C(=O)O1 [Linezolid, linezolid] the “Synergy Score” value (gram negative bacteria; with LpxCi-1, antibacterial agent at 1/16 MIC) was 0.46, the “Synergy Score” value (gram negative bacteria; with LpxCi-1, antibacterial agent at 1/64 MIC) was 1.03 and the “Synergy Score” value (gram negative bacteria; with LpxCi-1, antibacterial agent at ¼ MIC) was 0.54. The “Synergy Score” value (gram negative bacteria; with LpxCi-2, antibacterial agent at ¼ MIC) was 1.25, the “Synergy Score” value (gram negative bacteria; with LpxCi-3, antibacterial agent at 1/16 MIC) was 1.06 and the “Synergy Score” value (gram negative bacteria; with LpxCi-3, antibacterial agent at 1/64 MIC) was 1.02. For the same compound, the “Synergy Score” value (gram negative bacteria; with LpxCi-3, antibacterial agent at ¼ MIC) was 0.58, the FICI index (Pseudomonas aeruginosa) was “no effect” and the FICI index (Klebsiella pneumoniae) was “≦0.5”.
